According to ChEMBL document CHEMBL1201862, “PubChem BioAssay data set” (2004):
Where a name gives a salt, the structure may show the parent alone. Active and inactive are the calls of the source.

How the values were obtained:
[1] = target: T1, Interleukin-8 (Homo sapiens, UniProt P10145); experiment: Dose Response confirmation of uHTS small molecule hits for cystic fibrosis induced NFkb Inhibitors in a PAF-induced IL8 counterscreen.; assay type: functional; settings: read-out: IC50_Mean
T1 sequence (P10145 whole entry): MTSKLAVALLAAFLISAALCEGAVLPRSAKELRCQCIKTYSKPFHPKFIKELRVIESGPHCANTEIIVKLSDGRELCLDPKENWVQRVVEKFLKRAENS

[2] = target: Mu-type opioid receptor (Homo sapiens, UniProt P35372); assay type: functional, cell-based;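 note: U2OS cells with beta-arrestin recruitment to OPRM1 by beta-gal complementation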
Sequence of Mu-type opioid receptor (P35372 whole entry): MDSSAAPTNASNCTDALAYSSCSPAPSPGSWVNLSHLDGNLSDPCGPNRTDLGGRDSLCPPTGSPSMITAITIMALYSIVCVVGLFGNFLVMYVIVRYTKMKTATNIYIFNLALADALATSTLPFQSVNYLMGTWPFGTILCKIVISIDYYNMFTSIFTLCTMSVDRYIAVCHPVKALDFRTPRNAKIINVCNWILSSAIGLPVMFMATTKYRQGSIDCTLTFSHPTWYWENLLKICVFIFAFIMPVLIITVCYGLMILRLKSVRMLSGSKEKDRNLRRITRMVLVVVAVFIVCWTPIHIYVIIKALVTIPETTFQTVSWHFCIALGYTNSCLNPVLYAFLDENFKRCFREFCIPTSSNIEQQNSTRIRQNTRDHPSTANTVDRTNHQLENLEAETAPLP

[3] = target: 5-hydroxytryptamine receptor 2A (Mus musculus, UniProt P35363); assay type: functional, cell-based;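 note: CHO-K1 cells with tagged receptor and beta-arrestin; agonist potency measured as compound-induced activation of the receptor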
Sequence of 5-hydroxytryptamine receptor 2A (P35363 whole entry, the tested form may be a part): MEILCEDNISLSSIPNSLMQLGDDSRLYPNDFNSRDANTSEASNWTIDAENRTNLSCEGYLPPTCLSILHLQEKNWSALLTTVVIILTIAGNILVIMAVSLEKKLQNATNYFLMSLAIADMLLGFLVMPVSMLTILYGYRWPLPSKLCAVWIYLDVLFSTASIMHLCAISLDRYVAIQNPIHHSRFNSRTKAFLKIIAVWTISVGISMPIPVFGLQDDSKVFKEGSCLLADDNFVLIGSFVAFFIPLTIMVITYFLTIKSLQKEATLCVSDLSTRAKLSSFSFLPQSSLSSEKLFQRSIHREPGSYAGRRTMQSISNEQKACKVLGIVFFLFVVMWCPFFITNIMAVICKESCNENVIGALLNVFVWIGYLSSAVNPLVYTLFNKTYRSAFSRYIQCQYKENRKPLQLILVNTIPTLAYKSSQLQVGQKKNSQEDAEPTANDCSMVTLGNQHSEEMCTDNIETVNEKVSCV

[4] = target: Arf-GAP with SH3 domain, ANK repeat and PH domain-containing protein 1 (Homo sapiens, UniProt Q9ULH1); assay type: functional;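 note: biochemical fluorescence polarization dose–response screen measuring inhibition of ASAP1; ASAP1 GAP domain stimulating GTP hydrolysis by truncated human ARF1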
Sequence of Arf-GAP with SH3 domain, ANK repeat and PH domain-containing protein 1 (Q9ULH1 whole entry, the tested form may be a part): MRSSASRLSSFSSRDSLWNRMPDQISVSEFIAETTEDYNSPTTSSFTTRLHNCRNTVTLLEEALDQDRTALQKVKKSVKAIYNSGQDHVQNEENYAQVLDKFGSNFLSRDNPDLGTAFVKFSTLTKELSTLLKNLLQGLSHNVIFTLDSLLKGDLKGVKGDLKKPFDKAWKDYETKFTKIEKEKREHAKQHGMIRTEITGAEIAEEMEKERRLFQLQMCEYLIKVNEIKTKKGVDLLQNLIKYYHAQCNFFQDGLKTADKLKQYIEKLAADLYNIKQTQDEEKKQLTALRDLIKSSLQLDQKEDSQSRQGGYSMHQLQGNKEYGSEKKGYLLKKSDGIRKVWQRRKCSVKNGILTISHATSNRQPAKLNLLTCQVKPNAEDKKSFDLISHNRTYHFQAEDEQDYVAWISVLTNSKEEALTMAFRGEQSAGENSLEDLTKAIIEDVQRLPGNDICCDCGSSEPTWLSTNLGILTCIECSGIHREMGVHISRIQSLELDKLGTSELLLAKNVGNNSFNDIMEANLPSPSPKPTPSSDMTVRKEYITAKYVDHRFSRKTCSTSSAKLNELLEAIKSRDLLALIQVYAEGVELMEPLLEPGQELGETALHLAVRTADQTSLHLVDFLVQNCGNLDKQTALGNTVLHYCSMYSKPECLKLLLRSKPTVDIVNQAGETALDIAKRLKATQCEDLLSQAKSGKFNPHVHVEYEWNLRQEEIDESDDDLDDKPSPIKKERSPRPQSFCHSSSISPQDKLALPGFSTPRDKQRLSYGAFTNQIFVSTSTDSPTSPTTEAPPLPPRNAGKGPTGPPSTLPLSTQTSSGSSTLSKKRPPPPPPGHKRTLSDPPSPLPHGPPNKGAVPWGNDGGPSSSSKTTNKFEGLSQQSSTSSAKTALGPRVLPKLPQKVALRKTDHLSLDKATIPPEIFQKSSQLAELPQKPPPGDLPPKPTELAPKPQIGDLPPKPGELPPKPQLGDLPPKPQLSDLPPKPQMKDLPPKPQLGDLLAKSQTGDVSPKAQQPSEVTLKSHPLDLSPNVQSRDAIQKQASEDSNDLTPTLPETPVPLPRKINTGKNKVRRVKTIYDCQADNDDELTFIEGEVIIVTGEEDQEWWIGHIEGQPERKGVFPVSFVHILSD

[5] = test system: Streptococcus sp. 'group A'; experiment: growth inhibition of control SK(-) GAS strain, dose response, counter-screen for streptokinase expression inhibitor project, luminescence, kanamycin, BacTiterGlo, confirmation (AID 1900); assay type: functional, organism-based
[6] = target: T2, Streptokinase A (Streptococcus pyogenes serotype M1, UniProt P10520); experiment: S. pyogenes streptokinase expression inhibitors, potency, dose response, plasminogen activation absorbance, OD405 (AID 1914); assay type: functional, Streptococcus pyogenes M1 GAS;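 note: secreted streptokinase activity via plasminogen activation per viability signal from cell pellet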
T2 sequence (P10520 whole entry): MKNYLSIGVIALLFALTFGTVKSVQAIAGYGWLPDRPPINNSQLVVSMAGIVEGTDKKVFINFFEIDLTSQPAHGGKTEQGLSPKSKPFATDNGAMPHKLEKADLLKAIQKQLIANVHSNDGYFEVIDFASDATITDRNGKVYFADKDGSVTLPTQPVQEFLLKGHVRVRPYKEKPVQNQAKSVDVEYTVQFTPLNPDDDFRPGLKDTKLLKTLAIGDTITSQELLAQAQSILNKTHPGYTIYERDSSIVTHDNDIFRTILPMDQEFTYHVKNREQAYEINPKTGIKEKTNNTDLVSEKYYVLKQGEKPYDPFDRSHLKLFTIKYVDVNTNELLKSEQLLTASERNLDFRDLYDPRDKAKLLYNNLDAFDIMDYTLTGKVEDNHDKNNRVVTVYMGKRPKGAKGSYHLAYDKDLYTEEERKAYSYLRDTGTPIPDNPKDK

[7] = test system: Streptococcus; experiment: Group A Streptococcus viability loss, dose response, counter-screen for streptokinase expression inhibitor project, luminescence, BacTiterGlo (AID 1915); assay type: functional, organism-based;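 note: potency for reduction of bacterial viability or growth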
[8] = Luminescence Cell-Based Dose Retest to Confirm Inhibitors of Cancer Stem Cells. [Related pubchem assays (depositor defined):AID2717, AID2721]; assay type: functional; settings: Homo sapiens
[9] = target: T3, Insulin-degrading enzyme (Homo sapiens, UniProt P14735); experiment: activators of recombinant IDE enzyme, dose response, counter-screen for IDE activator project, biochemical, fluorescence polarization (AID 588681)
T3 sequence (P14735 whole entry): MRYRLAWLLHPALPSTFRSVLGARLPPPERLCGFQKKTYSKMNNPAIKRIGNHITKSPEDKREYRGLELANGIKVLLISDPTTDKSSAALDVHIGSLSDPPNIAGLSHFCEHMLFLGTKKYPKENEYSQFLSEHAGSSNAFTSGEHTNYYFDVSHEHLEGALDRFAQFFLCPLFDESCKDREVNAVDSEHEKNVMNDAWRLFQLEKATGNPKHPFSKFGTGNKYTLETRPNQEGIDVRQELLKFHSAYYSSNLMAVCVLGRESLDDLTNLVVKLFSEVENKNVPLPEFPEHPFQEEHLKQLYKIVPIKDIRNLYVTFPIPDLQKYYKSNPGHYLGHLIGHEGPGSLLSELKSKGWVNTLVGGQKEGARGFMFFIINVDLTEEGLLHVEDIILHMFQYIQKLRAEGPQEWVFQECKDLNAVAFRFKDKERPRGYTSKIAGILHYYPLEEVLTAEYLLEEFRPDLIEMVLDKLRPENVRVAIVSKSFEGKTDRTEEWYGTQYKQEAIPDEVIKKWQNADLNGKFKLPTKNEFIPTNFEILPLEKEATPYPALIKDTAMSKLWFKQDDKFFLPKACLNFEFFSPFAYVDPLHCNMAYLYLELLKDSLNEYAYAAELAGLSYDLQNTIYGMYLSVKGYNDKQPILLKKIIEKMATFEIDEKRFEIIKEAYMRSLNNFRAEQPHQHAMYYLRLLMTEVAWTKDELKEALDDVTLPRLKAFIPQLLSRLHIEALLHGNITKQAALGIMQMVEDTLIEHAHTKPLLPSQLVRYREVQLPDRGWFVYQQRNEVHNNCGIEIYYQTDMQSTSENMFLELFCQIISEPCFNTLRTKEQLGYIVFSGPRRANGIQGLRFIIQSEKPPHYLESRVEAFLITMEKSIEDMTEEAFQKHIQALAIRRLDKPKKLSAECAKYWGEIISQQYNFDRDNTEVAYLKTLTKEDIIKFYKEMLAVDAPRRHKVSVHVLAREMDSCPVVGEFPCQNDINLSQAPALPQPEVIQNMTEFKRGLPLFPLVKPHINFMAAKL

[10] = target: T3, Insulin-degrading enzyme; experiment: activators of endogenous IDE in HEK cells, dose response, cell-based, fluorescence polarization (AID 588439); assay type: functional
[11] = test system: HEK293; experiment: HEK cell cytotoxicity by LDH release, dose response, cytotoxicity control for IDE activator project, fluorescence, HEK cells (AID 588440); assay type: functional, cell-based; settings: Homo sapiens;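 note: cytotoxicity by LDH release measuring loss of membrane integrity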
[12] = test system: HEK293; experiment: optical interference in Abeta FP readout, dose response, artefact control for IDE activator project, biochemical, fluorescence polarization (AID 588442); assay type: functional, cell-based; settings: Homo sapiens
[13] = target: Galanin receptor type 3 (Homo sapiens, UniProt O60755); experiment: Fluorescence-based cell-based primary high throughput dose response assay to identify antagonists of the Galanin Receptor 3 (GalR3).; assay type: functional
[14] = cells; assay type: functional, cell-based; settings: HEK-CNG
[15] = target: T4, Heat shock factor protein 1 (Mus musculus, UniProt P38532); experiment: inhibition of MG132-induced HSE-luciferase signal, confirmation, cell-based, NIH3T3, luminescence, dose retest (AID 2382); assay type: functional;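 note: NIH3T3 fibroblasts with HSF1-driven luciferase reporter stressed by proteasome inhibitor MG132; luminescence from HSF1-driven luciferase expression after 8 hours of MG132 stress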
T4 sequence (P38532 whole entry): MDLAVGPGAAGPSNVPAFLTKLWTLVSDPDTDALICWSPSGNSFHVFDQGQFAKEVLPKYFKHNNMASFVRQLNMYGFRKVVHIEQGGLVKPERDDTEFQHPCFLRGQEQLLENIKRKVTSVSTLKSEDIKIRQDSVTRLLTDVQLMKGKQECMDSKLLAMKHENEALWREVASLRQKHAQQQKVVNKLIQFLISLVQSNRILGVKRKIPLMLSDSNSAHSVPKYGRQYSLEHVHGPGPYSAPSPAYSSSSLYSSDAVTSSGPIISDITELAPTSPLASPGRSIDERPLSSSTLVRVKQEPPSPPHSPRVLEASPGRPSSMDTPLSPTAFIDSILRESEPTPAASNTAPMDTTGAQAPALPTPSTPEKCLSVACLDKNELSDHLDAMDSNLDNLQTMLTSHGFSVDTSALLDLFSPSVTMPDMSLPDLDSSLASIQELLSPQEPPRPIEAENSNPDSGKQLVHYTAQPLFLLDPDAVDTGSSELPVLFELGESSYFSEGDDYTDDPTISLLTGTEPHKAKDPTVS

[16] = target: Adenosylmethionine-8-amino-7-oxononanoate aminotransferase (Mycobacterium tuberculosis, UniProt P9WQ81); experiment: Mycobacterium tuberculosis BioA enzyme inhibitor Measured in Biochemical System Using Plate Reader - 2163-02_Inhibitor_Dose_CherryPick_Activity.; assay type: functional, Mycobacterium tuberculosis UT205
Sequence of Adenosylmethionine-8-amino-7-oxononanoate aminotransferase (P9WQ81 whole entry): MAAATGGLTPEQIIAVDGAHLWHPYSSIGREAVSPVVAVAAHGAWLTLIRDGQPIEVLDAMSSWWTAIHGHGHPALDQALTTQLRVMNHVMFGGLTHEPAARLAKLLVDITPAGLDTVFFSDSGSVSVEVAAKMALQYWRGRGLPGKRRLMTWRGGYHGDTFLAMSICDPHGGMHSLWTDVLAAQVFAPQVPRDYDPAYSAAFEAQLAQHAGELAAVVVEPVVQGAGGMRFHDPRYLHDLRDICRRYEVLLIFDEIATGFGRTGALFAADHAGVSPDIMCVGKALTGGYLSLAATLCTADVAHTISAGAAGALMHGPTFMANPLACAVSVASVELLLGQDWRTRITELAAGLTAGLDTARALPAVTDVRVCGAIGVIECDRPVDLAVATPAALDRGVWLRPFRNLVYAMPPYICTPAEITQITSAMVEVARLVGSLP

[17] = target: T5, Sentrin-specific protease 1 (Homo sapiens, UniProt Q9P0U3); experiment: potency of human SENP1 inhibitors, dose response, biochemical, kinetic FRET (AID 651697); assay type: functional; settings: read-out: IC50_Mean
T5 sequence (Q9P0U3 whole entry): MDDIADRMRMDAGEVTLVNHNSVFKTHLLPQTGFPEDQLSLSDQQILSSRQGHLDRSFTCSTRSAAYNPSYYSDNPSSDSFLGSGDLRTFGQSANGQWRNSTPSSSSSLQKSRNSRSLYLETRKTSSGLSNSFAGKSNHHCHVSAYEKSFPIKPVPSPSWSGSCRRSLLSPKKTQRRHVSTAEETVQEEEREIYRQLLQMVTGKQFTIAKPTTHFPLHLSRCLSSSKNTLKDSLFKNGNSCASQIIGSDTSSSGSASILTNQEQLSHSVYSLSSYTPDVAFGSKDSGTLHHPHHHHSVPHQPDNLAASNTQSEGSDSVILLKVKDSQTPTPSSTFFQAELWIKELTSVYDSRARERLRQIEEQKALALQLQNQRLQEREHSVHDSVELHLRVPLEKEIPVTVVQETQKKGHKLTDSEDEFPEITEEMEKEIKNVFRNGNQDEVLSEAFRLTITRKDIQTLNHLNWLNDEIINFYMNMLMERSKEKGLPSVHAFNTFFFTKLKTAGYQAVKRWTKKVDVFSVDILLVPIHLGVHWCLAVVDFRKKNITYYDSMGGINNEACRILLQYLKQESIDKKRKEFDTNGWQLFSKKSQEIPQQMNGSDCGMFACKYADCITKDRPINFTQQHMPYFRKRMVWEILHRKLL

[18] = target: T5, Sentrin-specific protease 1; experiment: Dose response confirmation of small molecule inhibitors of the catalytic domain of the SUMO protease, SENP1 in a FRET assay.; assay type: functional; settings: read-out: IC50_Mean
[19] = target: T6, DNA repair and recombination protein RAD54-like (Homo sapiens, UniProt Q92698); experiment: inhibitors of human RAD54 branch migration, confirmation, biochemical, fluorescence, cherry-picked samples, dose series (AID 651657); assay type: functional
T6 sequence (Q92698 whole entry): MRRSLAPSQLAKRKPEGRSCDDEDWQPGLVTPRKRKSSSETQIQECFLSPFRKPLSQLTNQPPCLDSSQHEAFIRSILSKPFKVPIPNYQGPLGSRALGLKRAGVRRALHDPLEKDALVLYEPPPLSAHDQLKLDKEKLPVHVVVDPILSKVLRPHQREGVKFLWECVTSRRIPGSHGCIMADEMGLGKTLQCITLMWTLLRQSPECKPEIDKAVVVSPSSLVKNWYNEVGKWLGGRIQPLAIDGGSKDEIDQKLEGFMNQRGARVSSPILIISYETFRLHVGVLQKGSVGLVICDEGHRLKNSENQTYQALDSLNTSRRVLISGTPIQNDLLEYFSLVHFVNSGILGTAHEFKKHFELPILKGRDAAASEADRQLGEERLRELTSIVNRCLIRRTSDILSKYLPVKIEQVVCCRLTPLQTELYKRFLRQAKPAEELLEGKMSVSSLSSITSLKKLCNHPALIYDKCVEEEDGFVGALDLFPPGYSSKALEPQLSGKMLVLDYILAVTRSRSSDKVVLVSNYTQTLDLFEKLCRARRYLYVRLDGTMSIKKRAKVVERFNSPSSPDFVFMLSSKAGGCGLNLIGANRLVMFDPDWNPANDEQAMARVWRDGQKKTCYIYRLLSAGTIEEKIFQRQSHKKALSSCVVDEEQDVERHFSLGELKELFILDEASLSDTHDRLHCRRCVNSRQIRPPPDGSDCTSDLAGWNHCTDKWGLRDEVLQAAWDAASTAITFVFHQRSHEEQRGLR

[20] = Fluorescence-based cell-based high throughput dose response assay for inhibitors of the interaction of nucleotide-binding oligomerization domain containing 2 (NOD2) and the receptor-interacting serine-threonine kinase 2 (RIPK2).; assay type: functional; settings: Homo sapiens
[21] = target: T7, Fatty acid synthase (Homo sapiens, UniProt P49327); experiment: FAS thioesterase domain inhibitors, dose response, biochemical, endpoint fluorescence intensity, uHTS hits (AID 624327); assay type: functional;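 note: fluorescence from hydrolysis of an O-methyl fluorescein acyl ester substrate by the enzyme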
T7 sequence (P49327 whole entry, the tested form may be a part): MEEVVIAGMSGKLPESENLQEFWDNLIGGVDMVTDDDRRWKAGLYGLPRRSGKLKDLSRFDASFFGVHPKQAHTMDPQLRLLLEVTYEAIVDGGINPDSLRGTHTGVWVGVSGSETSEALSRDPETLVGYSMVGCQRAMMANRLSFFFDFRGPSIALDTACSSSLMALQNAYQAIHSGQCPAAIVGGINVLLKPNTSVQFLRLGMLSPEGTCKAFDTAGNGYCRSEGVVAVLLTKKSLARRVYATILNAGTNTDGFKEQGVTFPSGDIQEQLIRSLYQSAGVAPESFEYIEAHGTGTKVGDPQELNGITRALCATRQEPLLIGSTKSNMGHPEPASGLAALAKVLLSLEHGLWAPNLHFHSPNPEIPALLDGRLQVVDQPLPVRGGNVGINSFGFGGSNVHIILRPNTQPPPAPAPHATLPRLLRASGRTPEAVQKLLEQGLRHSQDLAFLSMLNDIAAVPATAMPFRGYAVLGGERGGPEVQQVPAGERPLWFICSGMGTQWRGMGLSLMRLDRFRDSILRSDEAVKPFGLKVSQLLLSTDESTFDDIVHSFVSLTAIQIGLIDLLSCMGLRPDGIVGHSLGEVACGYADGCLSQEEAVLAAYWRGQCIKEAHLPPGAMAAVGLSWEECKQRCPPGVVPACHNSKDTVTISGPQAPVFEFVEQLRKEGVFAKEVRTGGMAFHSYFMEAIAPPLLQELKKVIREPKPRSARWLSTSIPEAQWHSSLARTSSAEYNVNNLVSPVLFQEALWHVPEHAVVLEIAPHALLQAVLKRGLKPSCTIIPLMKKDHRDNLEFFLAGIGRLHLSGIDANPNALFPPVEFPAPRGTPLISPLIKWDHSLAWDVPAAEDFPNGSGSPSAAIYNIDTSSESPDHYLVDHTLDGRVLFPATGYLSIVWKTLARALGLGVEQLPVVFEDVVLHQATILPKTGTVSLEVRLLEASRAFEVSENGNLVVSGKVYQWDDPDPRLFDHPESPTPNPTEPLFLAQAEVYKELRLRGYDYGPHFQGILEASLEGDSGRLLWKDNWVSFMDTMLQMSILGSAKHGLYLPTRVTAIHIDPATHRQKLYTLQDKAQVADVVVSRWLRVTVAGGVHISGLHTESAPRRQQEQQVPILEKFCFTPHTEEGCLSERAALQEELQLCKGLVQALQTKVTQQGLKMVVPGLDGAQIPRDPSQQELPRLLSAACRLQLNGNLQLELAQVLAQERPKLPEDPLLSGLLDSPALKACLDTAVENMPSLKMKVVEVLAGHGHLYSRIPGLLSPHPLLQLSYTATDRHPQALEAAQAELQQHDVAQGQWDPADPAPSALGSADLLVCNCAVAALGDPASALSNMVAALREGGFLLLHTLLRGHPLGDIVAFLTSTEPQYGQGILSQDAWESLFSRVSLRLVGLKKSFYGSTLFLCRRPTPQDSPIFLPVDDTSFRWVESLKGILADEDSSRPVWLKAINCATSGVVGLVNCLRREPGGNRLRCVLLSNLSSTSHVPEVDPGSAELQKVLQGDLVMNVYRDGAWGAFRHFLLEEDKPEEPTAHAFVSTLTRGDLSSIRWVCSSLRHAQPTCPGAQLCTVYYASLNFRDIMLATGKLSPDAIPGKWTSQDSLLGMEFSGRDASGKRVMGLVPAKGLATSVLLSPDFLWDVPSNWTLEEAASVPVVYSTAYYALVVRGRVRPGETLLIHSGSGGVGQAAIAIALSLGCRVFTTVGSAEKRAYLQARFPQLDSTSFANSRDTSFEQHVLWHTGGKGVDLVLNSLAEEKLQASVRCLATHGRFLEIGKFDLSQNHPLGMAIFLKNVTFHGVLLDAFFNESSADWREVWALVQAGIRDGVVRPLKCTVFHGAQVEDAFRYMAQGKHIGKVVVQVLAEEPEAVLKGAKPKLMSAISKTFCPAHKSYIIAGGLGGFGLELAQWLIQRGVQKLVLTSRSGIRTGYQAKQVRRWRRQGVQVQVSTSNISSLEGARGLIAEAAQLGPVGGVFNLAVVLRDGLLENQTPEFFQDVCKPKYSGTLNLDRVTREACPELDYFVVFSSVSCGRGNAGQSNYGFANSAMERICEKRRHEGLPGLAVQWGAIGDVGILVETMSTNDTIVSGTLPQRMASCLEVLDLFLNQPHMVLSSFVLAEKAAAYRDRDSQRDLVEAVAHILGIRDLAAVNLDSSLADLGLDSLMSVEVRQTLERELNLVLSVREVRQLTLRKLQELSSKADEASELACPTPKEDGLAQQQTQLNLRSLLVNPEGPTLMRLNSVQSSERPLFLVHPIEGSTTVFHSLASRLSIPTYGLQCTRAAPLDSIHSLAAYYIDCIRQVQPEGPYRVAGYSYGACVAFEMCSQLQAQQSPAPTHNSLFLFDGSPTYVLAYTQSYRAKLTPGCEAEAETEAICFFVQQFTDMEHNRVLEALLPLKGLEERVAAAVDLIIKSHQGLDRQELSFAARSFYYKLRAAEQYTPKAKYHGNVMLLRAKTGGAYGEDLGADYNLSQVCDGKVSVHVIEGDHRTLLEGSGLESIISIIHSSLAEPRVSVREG

[22] = target: T7, Fatty acid synthase; experiment: FAS thioesterase domain inhibitors, dose response, biochemical, kinetic fluorescence intensity (AID 624326); assay type: functional;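 note: rate of fluorescence rise from hydrolysis of a fluorogenic O-methyl fluorescein ester substrate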

Cc1c(-c2ccccc2)oc2c(C(=O)N3CCN(c4ccc([N+](=O)[O-])cc4)CC3)cccc2c1=O
IC50 [1]: 40.2 µM (inactive)

COc1c2c(cc3c1OCO3)CCN(C)C2 [HYDROCOTARNINE HYDROBROMIDE]
EC50 [2]: 92.4 µM (inactive) | EC50 [3]: 76 µM (inactive)

O=C(CSc1ccccc1)Nc1ccc(-c2nc3ccccc3[nH]2)cc1
IC50 [4]: 14.7 µM (inactive)

CC(C)=CCCC1(C)C=Cc2c(c(C)cc3c2[nH]c2cc(O)ccc23)O1 (stereo not drawn)
EC50 [5]: 2.61 µM (active) | EC50 [6]: > 150 µM (not active) | EC50 [7]: 5.07 µM (active) | AC50 [8]: 5.38 µM (active) | EC50 [9]: > 54.7 µM (inactive) | EC50 [10]: 41 µM (inactive) | IC50 [11]: 15.3 µM (inactive) | EC50 [12]: > 55.9 µM (inactive)

OCc1cc(C(O)CNCCCCCCOCCCCc2ccccc2)ccc1O (stereo not drawn) [SALMETEROL XINAFOATE]
IC50 [13]: > 29.9 µM (inactive) | EC50 [14]: > 29.9 µM (inactive)

CN1CCc2c(sc(/N=C/c3cc(C(C)(C)C)ccc3O)c2C#N)C1
EC50 [15]: > 195 µM (not active) | EC50 [2]: 92.6 µM (inactive) | EC50 [3]: 12.9 µM (inactive)

C/C=C/c1ccc2c(c1)O[C@@H](CN(C)C(=O)Nc1ccc(OC)cc1)[C@@H](C)CN([C@@H](C)CO)S2(=O)=O
AC50 [16]: 2.08 µM (active)

O=C(N/N=C/c1cccnc1)c1cc2c(ccc3ccccc32)o1
IC50 [4]: 19.9 µM (inactive)

COc1cccc2c1-c1c(O)cccc1C2=O
IC50 [17]: 37.7 µM (inactive) | IC50 [18]: 18.6 µM (active) | AC50 [19]: 66.7 µM (active)

Cc1nc2nc(SCC(=O)N3CCOCC3)nn2c(C)c1Cc1ccccc1
AC50 [16]: 0.43 µM (active)

CN1CCN(C2=Nc3c(Cl)cc(Cl)c4cccc2c34)CC1
IC50 [17]: 6.95 µM (active) | IC50 [18]: 10.2 µM (active)

CCOC(=O)[C@]12Cc3cc(OC)ccc3[C@H]1N(C1CCCCC1)C(=O)c1ccccc12
IC50 [20]: 2.5 µM (active) | IC50 [21]: 8.86 µM (active) | IC50 [22]: 6.5 µM (active)
